Source: patent US12077503B2, “Substituted cyclic amides and their use as herbicides” (FMC CORPORATION, priority 2015, dated 2024)

Legend:
Assay type in all cases: in vivo
[1] = system: barnyardgrass (Echinochloa crus-galli); test: Test B flooded paddy test; conditions: Flood, 0 to 100 scale where 0 is no effect and 100 is complete control, 13 to 15 d
Outline: (§1)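 Response scored visually against untreated controls, 0 = no effect and 100 = complete control, 13–15 d after treatment in the greenhouse. Compounds added to paddy water held 3 cm above soil surface. Treatment given at 2-leaf stage.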

rice (Oryra sativa) = test: Test B flooded paddy test; conditions: Flood, 0 to 100 scale where 0 is no effect and 100 is complete control, 13 to 15 d
Outline: as §1

[2] = system: sedge, umbrella (small-flower umbrella sedge, Cyperus difformis); test: Test B flooded paddy test; conditions: Flood, 0 to 100 scale where 0 is no effect and 100 is complete control, 13 to 15 d
Outline: as §1

[3] = system: ducksalad (Heteranthera limosa); test: Test B flooded paddy test; conditions: Flood, 0 to 100 scale where 0 is no effect and 100 is complete control, 13 to 15 d
Outline: as §1

corn (Zea mays) = test: Test A postemergence; conditions: for Corn plant response rating: 125 g ai/ha, visual injury rating on 0 to 100 scale (0 no effect, 100 complete control), approx. 10 d; for Plant response rating, Corn: 500 g ai/ha
Outline: (§2)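 Preemergence soil spray on seeded pots or post-emergence spray on 1–2 leaf plants, in loam–sand blend. Greenhouse ~10 d. Visual rating 0–100 against untreated plants.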

Kochia (Kochia scoparia) [4] = test: Test A postemergence; conditions: for Kochia plant response rating: 125 g ai/ha, visual injury rating on 0 to 100 scale (0 no effect, 100 complete control), approx. 10 d; for Plant response rating, Kochia: 500 g ai/ha
Outline: as §2

[5] = system: giant foxtail (Setaria faberii); test: Test A postemergence; conditions: for Foxtail, Giant plant response rating: 125 g ai/ha, visual injury rating on 0 to 100 scale (0 no effect, 100 complete control), approx. 10 d; for Plant response rating, Foxtail, Giant: 500 g ai/ha
Outline: as §2

[6] = system: ryegrass, Italian (Italian ryegrass, Lolium multiflorum); test: Test A postemergence; conditions: for Ryegrass, Italian plant response rating: 125 g ai/ha, visual injury rating on 0 to 100 scale (0 no effect, 100 complete control), approx. 10 d; for Plant response rating, Ryegrass, Italian: 500 g ai/ha
Outline: as §2

[7] = system: barnyardgrass (Echinochloa crus-galli); test: Test A postemergence; conditions: for Barnyardgrass plant response rating: 125 g ai/ha, visual injury rating on 0 to 100 scale (0 no effect, 100 complete control), approx. 10 d; for Plant response rating, Barnyardgrass: 500 g ai/ha
Outline: as §2

[8] = system: wheat (Triticum aestivum); test: Test A postemergence; conditions: for Wheat plant response rating: 125 g ai/ha, visual injury rating on 0 to 100 scale (0 no effect, 100 complete control), approx. 10 d; for Plant response rating, Wheat: 500 g ai/ha
Outline: as §2

[9] = system: Galium (catchweed bedstraw, Galium aparine); test: Test A postemergence; conditions: for Galium plant response rating: 125 g ai/ha, visual injury rating on 0 to 100 scale (0 no effect, 100 complete control), approx. 10 d; for Plant response rating, Galium: 500 g ai/ha
Outline: as §2

[10] = system: blackgrass (Alopecurus myosuroides); test: Test A postemergence; conditions: for Blackgrass plant response rating: 125 g ai/ha, visual injury rating on 0 to 100 scale (0 no effect, 100 complete control), approx. 10 d; for Plant response rating, Blackgrass: 500 g ai/ha
Outline: as §2

[11] = system: ragweed (common ragweed, Ambrosia elatior); test: Test A postemergence; conditions: for Ragweed plant response rating: 125 g ai/ha, visual injury rating on 0 to 100 scale (0 no effect, 100 complete control), approx. 10 d; for Plant response rating, Ragweed: 500 g ai/ha
Outline: as §2

[12] = system: pigweed (Amaranthus retroflexus); test: Test A postemergence; conditions: for Pigweed plant response rating: 125 g ai/ha, visual injury rating on 0 to 100 scale (0 no effect, 100 complete control), approx. 10 d; for Plant response rating, Pigweed: 500 g ai/ha
Outline: as §2

Kochia (Kochia scoparia) [13] = test: Test A preemergence; conditions: for Plant response rating, Kochia: 125 g ai/ha; for Kochia plant response rating (0 to 100 scale, 0 is no effect, 100 is complete control): 500 g ai/ha, visual injury approx. 10 d
Outline: as §2

[14] = system: giant foxtail (Setaria faberii); test: Test A preemergence; conditions: for Plant response rating, Foxtail, Giant: 125 g ai/ha; for Foxtail, Giant plant response rating (0 to 100 scale, 0 is no effect, 100 is complete control): 500 g ai/ha, visual injury approx. 10 d
Outline: as §2

[15] = system: ryegrass, Italian (Italian ryegrass, Lolium multiflorum); test: Test A preemergence; conditions: for Plant response rating, Ryegrass, Italian: 125 g ai/ha; for Ryegrass, Italian plant response rating (0 to 100 scale, 0 is no effect, 100 is complete control): 500 g ai/ha, visual injury approx. 10 d
Outline: as §2

[16] = system: barnyardgrass (Echinochloa crus-galli); test: Test A preemergence; conditions: for Plant response rating, Barnyardgrass: 125 g ai/ha; for Barnyardgrass plant response rating (0 to 100 scale, 0 is no effect, 100 is complete control): 500 g ai/ha, visual injury approx. 10 d
Outline: as §2

[17] = system: ragweed (common ragweed, Ambrosia elatior); test: Test A preemergence; conditions: for Plant response rating, Ragweed: 125 g ai/ha; for Ragweed plant response rating (0 to 100 scale, 0 is no effect, 100 is complete control): 500 g ai/ha, visual injury approx. 10 d
Outline: as §2

[18] = system: pigweed (Amaranthus retroflexus); test: Test A preemergence; conditions: for Plant response rating, Pigweed: 125 g ai/ha; for Pigweed plant response rating (0 to 100 scale, 0 is no effect, 100 is complete control): 500 g ai/ha, visual injury approx. 10 d
[19] = postemergence, 0 to 100 scale, 0 no effect, 100 complete control
[20] = preemergence, 0 to 100 scale (0 no effect, 100 complete control)
[21] = Postemergence, 0 to 100 scale where 0 is no effect and 100 is complete control
[22] = Preemergence, visual injury after approximately 10 d, 0 to 100 scale where 0 is no effect and 100 is complete control

## COc1cccc(NC(=O)C2C(=O)NCC2c2cccc(OC(F)F)c2)c1F (stereo not drawn) [Compound 426]
[1]; 500 g ai/ha
  Plant response rating, Barnyardgrass: 0
Rice (Oryra sativa); 500 g ai/ha
  Plant response rating, Rice: 0
[2]; 500 g ai/ha
  Plant response rating, Sedge, Umbrella: 0
[3]; 500 g ai/ha
  Plant response rating, Ducksalad: 40
Corn (Zea mays); postemergence
  Corn plant response rating: 0
Corn (Zea mays); [19]
  Plant response rating, Corn: 0
Kochia (Kochia scoparia) [4]; postemergence
  Kochia plant response rating: 0
Kochia (Kochia scoparia) [4]; [19]
  Plant response rating, Kochia: 0
[5]; postemergence
  Foxtail, Giant plant response rating: 20
[5]; [19]
  Plant response rating, Foxtail, Giant: 60
[6]; postemergence
  Ryegrass, Italian plant response rating: 0
[6]; [19]
  Plant response rating, Ryegrass, Italian: 0
[7]; postemergence
  Barnyardgrass plant response rating: 30
[7]; [19]
  Plant response rating, Barnyardgrass: 70
[8]; postemergence
  Wheat plant response rating: 0
[8]; [19]
  Plant response rating, Wheat: 0
[9]; postemergence
  Galium plant response rating: 0
[9]; [19]
  Plant response rating, Galium: 0
[10]; postemergence
  Blackgrass plant response rating: 0
[10]; [19]
  Plant response rating, Blackgrass: 0
[11]; postemergence
  Ragweed plant response rating: 0
[11]; [19]
  Plant response rating, Ragweed: 0
[12]; postemergence
  Pigweed plant response rating: 0
[12]; [19]
  Plant response rating, Pigweed: 0
Kochia (Kochia scoparia) [13]; [20]
  Plant response rating, Kochia: 0
Kochia (Kochia scoparia) [13]; Preemergence
  Kochia plant response rating (0 to 100 scale, 0 is no effect, 100 is complete control): 0
[14]; [20]
  Plant response rating, Foxtail, Giant: 80
[14]; Preemergence
  Foxtail, Giant plant response rating (0 to 100 scale, 0 is no effect, 100 is complete control): 90
[15]; [20]
  Plant response rating, Ryegrass, Italian: 0
[15]; Preemergence
  Ryegrass, Italian plant response rating (0 to 100 scale, 0 is no effect, 100 is complete control): 0
[16]; [20]
  Plant response rating, Barnyardgrass: 50
[16]; Preemergence
  Barnyardgrass plant response rating (0 to 100 scale, 0 is no effect, 100 is complete control): 80
[17]; [20]
  Plant response rating, Ragweed: 0
[17]; Preemergence
  Ragweed plant response rating (0 to 100 scale, 0 is no effect, 100 is complete control): 0
[18]; [20]
  Plant response rating, Pigweed: 0
[18]; Preemergence
  Pigweed plant response rating (0 to 100 scale, 0 is no effect, 100 is complete control): 30

## O=C1NCC(c2c(F)cccc2F)C1C(=O)Nc1ccc(F)cc1F (racemic) [Compound 517]
[1]; 250 g ai/ha
  Plant response rating, Barnyardgrass: 0
Rice (Oryra sativa); 250 g ai/ha
  Plant response rating, Rice: 0
[2]; 250 g ai/ha
  Plant response rating, Sedge, Umbrella: 0
[3]; 250 g ai/ha
  Plant response rating, Ducksalad: 0
Corn (Zea mays); postemergence
  Corn plant response rating: 0
Corn (Zea mays); [21]
  Plant response rating, Corn: 0
Kochia (Kochia scoparia) [4]; postemergence
  Kochia plant response rating: 0
Kochia (Kochia scoparia) [4]; [21]
  Plant response rating, Kochia: 0
[5]; postemergence
  Foxtail, Giant plant response rating: 0
[5]; [21]
  Plant response rating, Foxtail, Giant: 0
[6]; postemergence
  Ryegrass, Italian plant response rating: 0
[6]; [21]
  Plant response rating, Ryegrass, Italian: 0
[7]; postemergence
  Barnyardgrass plant response rating: 20
[7]; [21]
  Plant response rating, Barnyardgrass: 30
[8]; postemergence
  Wheat plant response rating: 0
[8]; [21]
  Plant response rating, Wheat: 0
[9]; postemergence
  Galium plant response rating: 0
[9]; [21]
  Plant response rating, Galium: 0
[10]; postemergence
  Blackgrass plant response rating: 0
[10]; [21]
  Plant response rating, Blackgrass: 0
[11]; postemergence
  Ragweed plant response rating: 0
[11]; [21]
  Plant response rating, Ragweed: 0
[12]; postemergence
  Pigweed plant response rating: 0
[12]; [21]
  Plant response rating, Pigweed: 0
Kochia (Kochia scoparia) [13]; [22]
  Plant response rating, Kochia: 0
Kochia (Kochia scoparia) [13]; Preemergence
  Kochia plant response rating (0 to 100 scale, 0 is no effect, 100 is complete control): 0
[14]; [22]
  Plant response rating, Foxtail, Giant: 0
[14]; Preemergence
  Foxtail, Giant plant response rating (0 to 100 scale, 0 is no effect, 100 is complete control): 30
[15]; [22]
  Plant response rating, Ryegrass, Italian: 0
[15]; Preemergence
  Ryegrass, Italian plant response rating (0 to 100 scale, 0 is no effect, 100 is complete control): 0
[16]; [22]
  Plant response rating, Barnyardgrass: 0
[16]; Preemergence
  Barnyardgrass plant response rating (0 to 100 scale, 0 is no effect, 100 is complete control): 0
[17]; [22]
  Plant response rating, Ragweed: 0
[17]; Preemergence
  Ragweed plant response rating (0 to 100 scale, 0 is no effect, 100 is complete control): 0
[18]; [22]
  Plant response rating, Pigweed: 0
[18]; Preemergence
  Pigweed plant response rating (0 to 100 scale, 0 is no effect, 100 is complete control): 0
